The nature of the data set: Crystallization onset of supersaturated solution stirred at 20° C., followed in a Crystalline PV device with CCD cameras. In kind it is physicochemical. The procedure: (§1) A concentrated solution 2 of (S)-1-(3-(((4-amino-2,2-dioxido-1H-benzo[c][1,2,6]thiadiazin-5-yl)oxy)methyl)piperidin-1-yl)-3-methylbutan-1-one at 1% (w/w) (10000 ppm) was prepared in water. The pH was adjusted to 11 using NaOH to form the (S)-1-(3-(((4-amino-2,2-dioxido-1H-benzo[c][1,2,6]thiadiazin-5-yl)oxy)methyl)piperidin-1-yl)-3-methylbutan-1-one sodium salt, and a homogeneous solution was obtained. Next, a syrup was prepared by mixing an aqueous solution of HFCS, citric acid and deionized water. […] of 100 ppm of (S)-1-(3-(((4-amino-2,2-dioxido-1H-benzo[c][1,2,6]thiadiazin-5-yl)oxy)methyl)piperidin-1-yl)-3-methylbutan-1-one, i.e. about 15 times above the intrinsic solubility of the compound at 20° C. The sample was stirred at 20° C. and crystallization was followed in a Crystalline PV device equipped with CCD cameras. Crystallization started after about 530 minutes.
as §1, with “acid, HydroxyPropyl Cellulose (HPC) 100k” for “acid”, “deionized water. The final syrup contained 43% fructose, 1% citric acid, 0.05% HPC and 55.95%” for “deionized”, “cameras.” for “cameras. Crystallization started after about 530 minutes.”
A concentrated solution 2 of (S)-1-(3-(((4-amino-2,2-dioxido-1H-benzo[c][1,2,6]thiadiazin-5-yl)oxy)methyl)piperidin-1-yl)-3-methylbutan-1-one at 1% (w/w) (10000 ppm) was prepared in water. The pH was adjusted to 11 using NaOH to form the (S)-1-(3-(((4-amino-2,2-dioxido-1H-benzo[c][1,2,6]thiadiazin-5-yl)oxy)methyl)piperidin-1-yl)-3-methylbutan-1-one sodium salt, and a homogeneous solution was obtained. Next, a citric acid buffer solution was prepared by mixing 50 mM citric acid in deionised water (pH=2.8). An aliquot of solution 2 was diluted 100 times with the buffer solution to yield a final concentration of 100 ppm of (S)-1-(3-(((4-amino-2,2-dioxido-1H-benzo[c][1,2,6]thiadiazin-5-yl)oxy)methyl)piperidin-1-yl)-3-methylbutan-1-one, i.e. about 15 times above the intrinsic solubility of the compound at 20° C. The sample was stirred at 20° C. and crystallization was followed in a Crystalline PV device equipped with CCD cameras.
A concentrated solution 2 of (S)-1-(3-(((4-amino-2,2-dioxido-1H-benzo[c][1,2,6]thiadiazin-5-yl)oxy)methyl)piperidin-1-yl)-3-methylbutan-1-one at 1% (w/w) (10000 ppm) was prepared in water. The pH was adjusted to 11 using NaOH to form the (S)-1-(3-(((4-amino-2,2-dioxido-1H-benzo[c][1,2,6]thiadiazin-5-yl)oxy)methyl)piperidin-1-yl)-3-methylbutan-1-one sodium salt, and a homogeneous solution was obtained. Next, a citric acid buffer solution was prepared by mixing 50 mM citric acid and carboxymethyl cellulose (CMC) in deionised water (pH=2.8). The final water solution contained 50 mM citric acid and 0.05% CMC. […]

Structures are written as SMILES.

`CC(C)CC(=O)N1CCC[C@H](COc2cccc3c2C(N)=NS(=O)(=O)N3)C1` [(S)-1-(3-(((4-amino-2,2-dioxido-1H-benzo[c][1,2,6]thiadiazin-5-yl)oxy)methyl)piperidin-1-yl)-3-methylbutan-1-one]: the “time until crystallization started” value (Example 5 (comparative): 100 ppm, syrup 43 Brix (43% fructose, 1% citric acid), no polymer) is recorded as “about 530 minutes”. Further, the “time until first crystals were observed” value is, setting by setting: (Example 6: 100 ppm, syrup 43 Brix with 0.05% HPC 100k) “about 3520 minutes”; (Example 7 (comparative): 100 ppm, 50 mM citric acid buffer pH 2.8, no polymer) “about 166 minutes”; (Example 8: 100 ppm, 50 mM citric acid buffer pH 2.8 with 0.05% CMC) “about 466 minutes”. Further, for the setting “Example 9: 100 ppm, syrup 43 Brix with 0.05% HPMC 100k”, the crystallization observation entry is on record as “No crystallization was observed after seven days”.

The record behind these values is patent publication US20170188607A1, “SOLUBILIZATION OF A SWEET MODULATOR AND FLAVOR” (Firmenich SA, priority 2014, published 2017).
